Measured values taken from patent US20120029041A1, “2-ARYL IMIDAZOLINE DERIVATIVES” (MSD K.K., priority 2009, published 2012).

Target: T1, human QRFP receptor (GPR103) (Homo sapiens, UniProt Q96P65)
T1 construct: expressed in transfected cells; host or cells: NFAT β-Lactamase CHO-K1 host cells (Aurora); membrane specimen
T1 sequence (Q96P65 1-431): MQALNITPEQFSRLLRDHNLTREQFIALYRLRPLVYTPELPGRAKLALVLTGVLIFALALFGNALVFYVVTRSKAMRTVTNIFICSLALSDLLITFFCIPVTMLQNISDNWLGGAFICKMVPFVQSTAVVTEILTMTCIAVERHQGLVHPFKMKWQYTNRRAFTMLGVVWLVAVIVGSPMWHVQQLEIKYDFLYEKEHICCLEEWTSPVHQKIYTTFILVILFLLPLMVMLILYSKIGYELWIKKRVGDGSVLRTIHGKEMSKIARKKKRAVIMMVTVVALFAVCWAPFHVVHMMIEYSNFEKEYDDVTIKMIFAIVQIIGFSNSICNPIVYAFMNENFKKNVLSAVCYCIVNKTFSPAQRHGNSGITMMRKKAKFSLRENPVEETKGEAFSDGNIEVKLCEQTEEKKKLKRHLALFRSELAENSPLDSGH
Assay: QRFP43 Binding Inhibition Test
Details: membrane specimen from GPR103 expressing CHO-K1 cells, [125I] QRFP43, 25° C., 1 hour; read-out: IC50 for the specific [125I] QRFP43 binding
Source text: The cDNA sequence [Accession No. NM_198179] that codes for human QRFP receptor (GPR103) was cloned into an expression vector pEF1V5-HisB (Invitrogen). The expression vector so prepared was transfected into NFAT [β-Lactamase CHO-K1 host cells (Aurora) to obtain QRFP receptor (GPR103) expressing cells, using the cationic lipid method [see Proceedings of the National Academy of Sciences of the United States of America, Vol. 84, p. 7413 (1987)].
The membrane specimen prepared from the QRFP receptor (GPR103) expressing cells was incubated at 25° C. for 1 hour with a test compound and 20,000 cpm [^125I] QRFP43 (PerkinElmer, Inc.) in an assay buffer (50 mM Tris-HCl, 1 mM EDTA, and 0.1% BSA, pH 7.4), followed by filtration using a glass filter GF/C. After washing with a 50 mM Tris-HCl (containing 2 mM EDTA, 10 mM MgCl2, and 0.04% Tween-20) buffer at pH 7.4, the radioactivity on the glass filter was determined using a gamma counter. Non-specific binding was measured in the presence of 1 μM peptide QRFP43, and 50% inhibition concentration (IC50 value) of the test compound for the specific [^125I] QRFP43 binding was determined [see Endocrinology, Vol. 131, p. 2090 (1992)].

| IC50 | SMILES |
| --- | --- |
| 37 nM | Cc1ccc(C2=NCCN2C(c2ccccc2)c2ccccc2)cc1 [Example 5, 1-(Diphenylmethyl)-2-(4-methylphenyl)-4,5-dihydro-1H-imidazole] |
| 11 nM | COc1ccc(C2=NCCN2C(c2ccccc2)c2ccccc2)cc1 [Example 6, 1-(Diphenylmethyl)-2-(4-methoxyphenyl)-4,5-dihydro-1H-imidazole] |
| 17 nM | Clc1ccc(C2=NCCN2C(c2ccccc2)c2ccccc2)cc1 [Example 2, 2-(4-Chlorophenyl)-1-(diphenylmethyl)-4,5-dihydro-1H-imidazole] |
